Experimental data as given in patent publication US10654808B2, “Tyrosine kinase inhibitor and pharmaceutical composition comprising same” (GUANGDONG RAYNOVENT BIOTECH CO., LTD., priority 2015, dated 2020).
pIC50: −log10 of the molar value.

Assays:
Format in all cases: biochemical
PDGFRB = target: T1, PDGFRB (Homo sapiens, UniProt P09619); test: Z'-LYTE in vitro enzyme activity assay, PDGFRB; conditions: 100 μM ATP, 60 minutes, room temperature; read-out: IC50 detected by Z'-LYTE, PDGFRB
T1 construct: purchased Millipore
T1 sequence (P09619 33-1106): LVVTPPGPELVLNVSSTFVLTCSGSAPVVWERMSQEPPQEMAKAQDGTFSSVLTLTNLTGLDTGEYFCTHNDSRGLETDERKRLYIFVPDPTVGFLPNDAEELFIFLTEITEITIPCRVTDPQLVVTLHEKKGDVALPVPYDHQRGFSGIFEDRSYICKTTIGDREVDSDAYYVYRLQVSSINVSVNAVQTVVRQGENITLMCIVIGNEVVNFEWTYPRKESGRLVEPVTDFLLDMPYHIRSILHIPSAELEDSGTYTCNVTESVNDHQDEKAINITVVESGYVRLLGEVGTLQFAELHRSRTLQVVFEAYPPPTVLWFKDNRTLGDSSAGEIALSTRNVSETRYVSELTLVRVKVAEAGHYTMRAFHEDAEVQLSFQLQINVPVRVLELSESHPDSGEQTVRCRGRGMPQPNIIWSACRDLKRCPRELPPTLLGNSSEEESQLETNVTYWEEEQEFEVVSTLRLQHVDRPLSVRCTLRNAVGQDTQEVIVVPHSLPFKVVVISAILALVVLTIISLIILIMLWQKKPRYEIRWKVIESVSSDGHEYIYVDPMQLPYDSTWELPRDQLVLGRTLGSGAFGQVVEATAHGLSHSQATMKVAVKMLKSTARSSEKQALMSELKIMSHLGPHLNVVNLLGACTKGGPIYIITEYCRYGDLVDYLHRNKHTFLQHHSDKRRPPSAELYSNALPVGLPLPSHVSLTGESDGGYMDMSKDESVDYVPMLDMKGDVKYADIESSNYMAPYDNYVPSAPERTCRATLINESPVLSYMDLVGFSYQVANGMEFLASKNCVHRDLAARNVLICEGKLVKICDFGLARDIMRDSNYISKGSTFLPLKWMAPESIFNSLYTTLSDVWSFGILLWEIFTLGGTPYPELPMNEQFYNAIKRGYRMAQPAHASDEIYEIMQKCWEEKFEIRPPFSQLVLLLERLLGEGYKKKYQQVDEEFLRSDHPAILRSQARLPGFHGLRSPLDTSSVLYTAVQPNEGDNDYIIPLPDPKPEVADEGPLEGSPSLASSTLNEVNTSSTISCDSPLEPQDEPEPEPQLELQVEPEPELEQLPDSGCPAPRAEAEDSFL
Procedure: (§1) The enzyme activity was measured by Z′-LYTE™ Detection Kinase Assay. The IC50 value of the compounds was used as an index to evaluate the inhibitory effect of the compounds on VEGFR2, FGFR1 and PDGFRB.
(§2) Recombinant human VEGFR2 and FGFR1 proteases were purchased from Life technology, PDGFRB Protease was purchased from Millipore.
(§3) Z-LYTE™ Kit Tyr1 and Tyr4 were purchased from Life technology. Multi-microplate reader, Envision (PerkinElmer) read board was used.
(§4) The test compounds were diluted 3 times with a concentration gradient, the final concentration was from 10 μM to 0.17 nM with a total of 11 concentrations, and each concentration had two parallel holes; the content of DMSO in the assay was 1%.
(§5) 40 nM PDGFRB protein kinase, 2 μM Tyr4 peptide, 100 μM ATP, 50 mM HEPES (pH 7.5), 10 mM MgCl2, 1 mM EGTA, 0.01% BRIJ-35, 2 mM MnCl2, 1 mM DTT. The detector plate was Black Proxiplate 384-Plus plate (PerkinElmer), the reaction was performed at room temperature for 60 minutes, and the reaction system was 10 μl.
(§6) The reaction was stopped by adding 5 μl of DV reagent B (1:128) to the kinase reaction solution and incubated at 23° C. for 60 minutes. The Envision instrument was used to read the plate.
(§7) The data was converted to phosphorylation rate and inhibition rate and the 4 parameter curve fitting (Model 205 in XLFIT5, iDBS) was used to get IC50 data of the compounds.

VEGFR2 = target: T2, VEGFR2 (Homo sapiens, UniProt P35968); test: Z'-LYTE in vitro enzyme activity assay, VEGFR2; conditions: 100 μM ATP, 60 minutes, room temperature; read-out: IC50 detected by Z'-LYTE, VEGFR2
T2 construct: purchased Life technology
T2 sequence (P35968 20-1356): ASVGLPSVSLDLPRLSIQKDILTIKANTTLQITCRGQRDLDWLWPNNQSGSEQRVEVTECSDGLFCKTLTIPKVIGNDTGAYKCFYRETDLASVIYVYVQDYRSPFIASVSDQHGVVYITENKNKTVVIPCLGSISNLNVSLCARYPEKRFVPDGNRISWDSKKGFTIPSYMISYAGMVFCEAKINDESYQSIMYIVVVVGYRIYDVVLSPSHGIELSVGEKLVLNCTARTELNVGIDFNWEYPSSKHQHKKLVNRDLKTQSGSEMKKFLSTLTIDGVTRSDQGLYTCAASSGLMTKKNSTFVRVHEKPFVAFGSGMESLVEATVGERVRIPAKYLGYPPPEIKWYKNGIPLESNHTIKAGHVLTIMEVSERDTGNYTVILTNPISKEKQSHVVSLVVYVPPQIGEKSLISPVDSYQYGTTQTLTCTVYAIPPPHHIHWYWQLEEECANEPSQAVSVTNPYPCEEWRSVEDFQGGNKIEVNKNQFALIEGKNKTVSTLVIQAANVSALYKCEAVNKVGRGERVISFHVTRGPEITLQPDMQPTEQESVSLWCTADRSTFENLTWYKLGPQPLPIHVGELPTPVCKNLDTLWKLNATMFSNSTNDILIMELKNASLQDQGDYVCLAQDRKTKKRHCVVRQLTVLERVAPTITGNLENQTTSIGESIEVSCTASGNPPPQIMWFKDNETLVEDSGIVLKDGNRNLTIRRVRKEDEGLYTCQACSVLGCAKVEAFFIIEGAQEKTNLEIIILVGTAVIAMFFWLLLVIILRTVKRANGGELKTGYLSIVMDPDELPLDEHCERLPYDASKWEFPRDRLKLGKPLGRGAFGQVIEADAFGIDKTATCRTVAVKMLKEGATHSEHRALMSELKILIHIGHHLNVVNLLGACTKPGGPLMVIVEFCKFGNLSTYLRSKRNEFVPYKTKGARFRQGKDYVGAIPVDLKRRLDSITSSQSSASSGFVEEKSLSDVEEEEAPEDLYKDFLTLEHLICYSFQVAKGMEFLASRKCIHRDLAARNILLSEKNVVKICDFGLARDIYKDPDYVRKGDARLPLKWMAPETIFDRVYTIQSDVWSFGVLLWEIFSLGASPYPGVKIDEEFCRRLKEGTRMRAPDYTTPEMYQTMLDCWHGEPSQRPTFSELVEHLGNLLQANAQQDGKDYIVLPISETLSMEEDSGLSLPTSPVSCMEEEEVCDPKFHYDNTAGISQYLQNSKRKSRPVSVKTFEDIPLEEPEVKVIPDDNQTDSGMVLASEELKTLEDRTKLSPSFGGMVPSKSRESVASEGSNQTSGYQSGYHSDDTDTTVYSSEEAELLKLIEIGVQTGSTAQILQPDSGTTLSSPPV
Procedure: as §1, §2, §3, §4
3 nM VEGFR2 protein kinase, 2 μM Tyr1 peptide, 100 μM ATP, 50 mM HEPES (pH 7.5), 10 mM MgCl2, 1 mM EGTA, 0.01% BRIJ-35. The detector plate was Black Proxiplate 384-Plus plate (PerkinElmer), the reaction was performed at room temperature for 60 minutes, and the reaction system was 10 μl.
as §6, §7

FGFR1 = target: T3, FGFR1 (Homo sapiens, UniProt P11362); test: Z'-LYTE in vitro enzyme activity assay, FGFR1; conditions: 25 μM ATP, 60 minutes, room temperature; read-out: IC50 detected by Z'-LYTE, FGFR1
T3 construct: purchased Life technology
T3 sequence (P11362 22-822): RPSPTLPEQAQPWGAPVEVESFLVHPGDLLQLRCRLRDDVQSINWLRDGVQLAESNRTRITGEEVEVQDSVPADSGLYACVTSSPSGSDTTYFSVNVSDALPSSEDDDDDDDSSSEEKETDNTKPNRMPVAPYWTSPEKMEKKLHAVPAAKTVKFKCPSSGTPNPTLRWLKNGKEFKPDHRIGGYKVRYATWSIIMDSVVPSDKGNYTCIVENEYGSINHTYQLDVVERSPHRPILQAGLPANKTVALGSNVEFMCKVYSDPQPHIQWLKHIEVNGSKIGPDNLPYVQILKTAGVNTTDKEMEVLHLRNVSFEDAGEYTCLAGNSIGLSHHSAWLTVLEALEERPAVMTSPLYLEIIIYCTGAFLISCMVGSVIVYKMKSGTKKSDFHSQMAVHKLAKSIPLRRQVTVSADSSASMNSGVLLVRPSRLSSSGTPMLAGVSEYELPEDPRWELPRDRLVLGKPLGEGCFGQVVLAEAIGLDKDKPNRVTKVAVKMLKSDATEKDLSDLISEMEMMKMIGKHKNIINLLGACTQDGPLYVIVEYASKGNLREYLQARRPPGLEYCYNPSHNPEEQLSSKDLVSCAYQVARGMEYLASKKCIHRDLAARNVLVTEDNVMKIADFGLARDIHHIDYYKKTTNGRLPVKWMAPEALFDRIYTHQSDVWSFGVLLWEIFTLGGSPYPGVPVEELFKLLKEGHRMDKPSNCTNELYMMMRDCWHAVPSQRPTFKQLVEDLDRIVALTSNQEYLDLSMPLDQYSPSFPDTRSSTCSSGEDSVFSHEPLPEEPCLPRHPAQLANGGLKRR
Procedure: as §1, §2, §3, §4
as §5, with “1” for “40”, “FGFR1” for “PDGFRB”, “25” for “100”
as §6, §7

| SMILES | pIC50 (PDGFRB) | pIC50 (VEGFR2) | pIC50 (FGFR1) |
| --- | --- | --- | --- |
| COc1cc2nccc(Oc3ccc4nc(NCC(F)F)sc4c3)c2cc1C(N)=O [Example 157] | 6.00 to 6.70 | 6.00 to 6.70 | 6.00 to 6.70 |
| COc1cc2nccc(Oc3ccc4nc(NC5CCC5)sc4c3)c2cc1C(N)=O [Example 158] | 6.00 to 6.70 | 6.00 to 6.70 | 6.00 to 6.70 |
| COc1cc2nccc(Oc3ccc4nc(NCc5cccc(C(F)(F)F)c5)sc4c3)c2cc1C(N)=O [Example 161] | 6.00 to 6.70 | 6.00 to 6.70 | 6.00 to 6.70 |
| COc1cc2nccc(Oc3ccc4[nH]cc(C#N)c4c3)c2cc1C(N)=O [Example 162] | 6.00 to 6.70 | 6.00 to 6.70 | 6.00 to 6.70 |
| COc1cc2nccc(Oc3ccc4c(c3)CN(CC(F)F)C(=O)N4)c2cc1C(N)=O [Example 164] | 6.00 to 6.70 | 6.00 to 6.70 | 6.00 to 6.70 |
| COc1cc2nccc(Oc3ccc(N4CCNC4=O)c(Cl)c3)c2cc1C(N)=O [Example 165] | 6.00 to 6.70 | 6.00 to 6.70 | 6.00 to 6.70 |
| COc1cc2nccc(Oc3ccc(NC(=O)C4(C(=O)NC5CC5)CC4)c(Cl)c3)c2cc1C(N)=O [Example 168] | 6.00 to 6.70 | 6.00 to 6.70 | 6.00 to 6.70 |
| COc1ccc2c(Oc3ccc(NC(=S)NC4CC4)c(Cl)c3)ccnc2c1 [Example 170] | 6.00 to 6.70 | > 7.30 | 6.00 to 6.70 |
| COc1ccc2c(Oc3ccc(NC(=S)N4CC(F)(F)C4)c(Cl)c3)ccnc2c1 [Example 171] | 6.00 to 6.70 | 6.00 to 6.70 | 6.00 to 6.70 |
| CC1(C)NC(=O)c2cc3c(Oc4ccc(NC(=S)NC5CC5)c(Cl)c4)ccnc3cc2O1 [Example 172] | 6.00 to 6.70 | 6.00 to 6.70 | 6.00 to 6.70 |
| CCC1NC(=O)c2cc3c(Oc4ccc(NC(=S)NC5CC5)c(Cl)c4)ccnc3cc2O1 (stereo not drawn) [Example 173] | 6.00 to 6.70 | 6.00 to 6.70 | 6.00 to 6.70 |
| COc1cc2nccc(Oc3ccc(NC(=S)NC4CC4)c(Cl)c3)c2cc1C(C)(C)O [Example 175] | 6.00 to 6.70 | 6.00 to 6.70 | 6.00 to 6.70 |
| COc1cc2nccc(Oc3ccc(CC(=O)N4CCCC4)cc3)c2cc1C(N)=O [Example 176] | 6.00 to 6.70 | 6.00 to 6.70 | 6.00 to 6.70 |
| COC(=O)c1cc2c(Oc3ccc(NC(=S)N4CC(F)(F)C4)c(Cl)c3)ccnc2cc1OC [Example 178] | 6.00 to 6.70 | 6.00 to 6.70 | 6.00 to 6.70 |
| COc1cc2nccc(Oc3ccc(NC(=S)N4CC(F)(F)C4)c(Cl)c3)c2cc1NC(C)=O [Example 180] | 6.00 to 6.70 | 6.00 to 6.70 | 6.00 to 6.70 |
| COc1cc2nccc(Oc3ccc(NC(=S)N4CCCC4)c(Cl)c3)c2cc1NC(C)=O [Example 181] | 6.00 to 6.70 | 6.00 to 6.70 | 6.00 to 6.70 |
| COc1cc2nccc(Oc3ccc(NC(=S)NC4CC4)c(Cl)c3)c2cc1NC(C)=O [Example 182] | 6.00 to 6.70 | 6.70 to 7.30 | 6.00 to 6.70 |
| COc1cc2nccc(Oc3ccc(NC(=S)N4CC(F)(F)C4)c(Cl)c3)c2cc1C(F)(F)F [Example 184] | 6.00 to 6.70 | 6.00 to 6.70 | 6.00 to 6.70 |
| COc1cc2nccc(Oc3ccc4c(C(=O)NC5CC5)c[nH]c4c3)c2cc1C(N)=O [Example 186] | 6.00 to 6.70 | > 7.30 | 6.00 to 6.70 |
| COc1cc2nccc(Oc3ccc4c(C(=O)N5CC(F)(F)C5)coc4c3)c2cc1C(N)=O [Example 187] | 6.00 to 6.70 | 6.00 to 6.70 | 6.00 to 6.70 |
| COc1cc2nccc(Oc3ccc4c(C(=O)N5CCCC5)c[nH]c4c3)c2cc1C(N)=O [Example 188] | 6.00 to 6.70 | 6.00 to 6.70 | 6.00 to 6.70 |
| COc1cc2nccc(Oc3ccc4c(C(=O)N5CC(F)(F)C5)c[nH]c4c3)c2cc1C(N)=O [Example 189] | 6.00 to 6.70 | 6.00 to 6.70 | 6.00 to 6.70 |
| COc1cc2nccc(Oc3cc(Cl)c4c(C(=O)N5CCCC5)coc4c3)c2cc1C(N)=O [Example 194] | 6.00 to 6.70 | 6.00 to 6.70 | 6.00 to 6.70 |
| COc1cc2nccc(Oc3cc(Cl)c4c(C(=O)N5CC(F)(F)C5)coc4c3)c2cc1C(N)=O [Example 195] | 6.00 to 6.70 | 6.00 to 6.70 | 6.00 to 6.70 |

Next, values leading:

| pIC50 (PDGFRB) | pIC50 (VEGFR2) | pIC50 (FGFR1) | SMILES |
| --- | --- | --- | --- |
| > 7.30 | 6.70 to 7.30 | 6.00 to 6.70 | COc1cc2nccc(Oc3ccc(NC(=O)N4CC(F)C4)c(Cl)c3F)c2cc1C(N)=O [Example 122] |
| 6.00 to 6.70 | 6.00 to 6.70 | 6.00 to 6.70 | COc1cc2nccc(Oc3ccc(Nc4c(NCCN(C)C)c(=O)c4=O)c(Cl)c3)c2cc1C(N)=O [Example 136] |
| 6.00 to 6.70 | 6.00 to 6.70 | 6.00 to 6.70 | COc1cc2nccc(Oc3ccc(Nc4c(NCCC#N)c(=O)c4=O)c(Cl)c3)c2cc1C(N)=O [Example 137] |
| 6.00 to 6.70 | 6.00 to 6.70 | 6.00 to 6.70 | COc1cc2nccc(Oc3ccc(Nc4c(NCC(F)(F)F)c(=O)c4=O)c(Cl)c3)c2cc1C(N)=O [Example 138] |
| 6.00 to 6.70 | 6.00 to 6.70 | 6.00 to 6.70 | COc1cc2nccc(Oc3ccc(Nc4c(NC5CCOCC5)c(=O)c4=O)c(Cl)c3)c2cc1C(N)=O [Example 139] |
| 6.00 to 6.70 | 6.00 to 6.70 | 6.00 to 6.70 | CCCNc1c(Nc2ccc(Oc3ccnc4cc(OC)c(C(N)=O)cc34)cc2Cl)c(=O)c1=O [Example 140] |
| 6.00 to 6.70 | 6.00 to 6.70 | 6.00 to 6.70 | COCCCNc1c(Nc2ccc(Oc3ccnc4cc(OC)c(C(N)=O)cc34)cc2Cl)c(=O)c1=O [Example 141] |
| 6.00 to 6.70 | 6.00 to 6.70 | 6.00 to 6.70 | COc1cc2nccc(Oc3ccc(Nc4c(NCC(C)C)c(=O)c4=O)c(Cl)c3)c2cc1C(N)=O [Example 144] |
| > 7.30 | 6.00 to 6.70 | 6.00 to 6.70 | COc1cc2nccc(Oc3ccc(Nc4c(NC5CCC5)c(=O)c4=O)c(Cl)c3)c2cc1C(N)=O [Example 145] |
| 6.00 to 6.70 | 6.00 to 6.70 | 6.00 to 6.70 | COc1cc2nccc(Oc3ccc(Nc4c(Nc5cccnc5)c(=O)c4=O)c(Cl)c3)c2cc1C(N)=O [Example 147] |
| > 7.30 | 6.00 to 6.70 | 6.00 to 6.70 | COc1cc2nccc(Oc3ccc(Nc4c(NCc5ccccc5)c(=O)c4=O)c(Cl)c3)c2cc1C(N)=O [Example 148] |
| 6.00 to 6.70 | 6.00 to 6.70 | 6.00 to 6.70 | COc1cc2nccc(Oc3ccc(Nc4c(NCc5cccnc5)c(=O)c4=O)c(Cl)c3)c2cc1C(N)=O [Example 149] |
| > 7.30 | 6.00 to 6.70 | 6.00 to 6.70 | COc1cc2nccc(Oc3ccc(Nc4c(NCc5ccccn5)c(=O)c4=O)c(Cl)c3)c2cc1C(N)=O [Example 150] |
| > 7.30 | 6.00 to 6.70 | 6.00 to 6.70 | COc1cc2nccc(Oc3ccc(Nc4c(NCc5ccc(Cl)cc5)c(=O)c4=O)c(Cl)c3)c2cc1C(N)=O [Example 151] |
| 6.00 to 6.70 | 6.00 to 6.70 | 6.00 to 6.70 | COc1cc2nccc(Oc3ccc(Nc4c(NCc5ccncc5)c(=O)c4=O)c(Cl)c3)c2cc1C(N)=O [Example 153] |
| 6.00 to 6.70 | 6.00 to 6.70 | 6.00 to 6.70 | COc1cc2nccc(Oc3ccc(Nc4c(NCCc5ccccc5)c(=O)c4=O)c(Cl)c3)c2cc1C(N)=O [Example 154] |
| > 7.30 | 6.00 to 6.70 | 6.00 to 6.70 | COc1cc2nccc(Oc3ccc(Nc4c(Nc5cccc(C(F)(F)F)c5)c(=O)c4=O)c(Cl)c3)c2cc1C(N)=O [Example 155] |
| 6.00 to 6.70 | 6.00 to 6.70 | 6.00 to 6.70 | COc1cc2nccc(Oc3ccc4nc(NCC(C)C)sc4c3)c2cc1C(N)=O [Example 156] |
| 6.70 to 7.30 | > 7.30 | 6.00 to 6.70 | COc1cc2nccc(Oc3ccc(N4C(=O)CNC4=S)c(Cl)c3)c2cc1C(N)=O [Example 166] |
| > 7.30 | > 7.30 | 6.00 to 6.70 | COc1cc2nccc(Oc3ccc(N4CC(=O)NC4=S)c(Cl)c3)c2cc1C(N)=O [Example 167] |
| 6.70 to 7.30 | 6.00 to 6.70 | 6.00 to 6.70 | COc1cc2nccc(Oc3ccc(CC(=O)N4CC(F)(F)C4)cc3)c2cc1C(N)=O [Example 177] |
| 6.70 to 7.30 | 6.00 to 6.70 | 6.00 to 6.70 | COc1cc2nccc(Oc3ccc4c(NC(=S)NC5CC5)nn(C)c4c3)c2cc1C(N)=O [Example 193] |
